What all share (assay type): cell-based, human
Assay [1] has as its system Cells from Nasopharynx Carcinoma Explant. The assay can be described thus: In vitro short-term chemosensitivity assay (MTT). The conditions noted are these: Table 1, 24 h. The procedure: (§1) The effects of L-aC on cells from 4 primitive epidermoid carcinomas of the larynx and 1 primitive undifferentiated carcinoma of the nasopharynx were tested.
(§2) Tissue fragments from the tumour mass were mechanically dissociated in Hank's solutions adding an antibiotic and an antifungal to obtain a cell monosuspension free of agglomerates. The resulting suspension was centrifuged at 1200 rpm for 5 minutes and the pellet was resuspended in MEM culture medium supplemented with 10% of patient serum, to obtain a concentration of 10^5 cells/ml. Subsequently, 180 μl of the resulting suspension were dispensed in microplate wells and incubated under 5% CO2 atmosphere at 37° C. for 3 days. After that, the antitumor medicaments were added in the amount of 20 μl for each well, at a concentration of 0.1×, 1× and 10× the maximum serum concentrations that can usually be reached in clinical practice. 24 h after the beginning of the exposure to the antitumour medicament, 100 μl of MTT were added, and after 4 h, a further 150 μl of dimethylsulfoxide were added.
(§3) The optical density was evaluated by a Uniscan microspectrophotometer with a […] wavelength filter. Cytotoxicity was evaluated as percentage of the optical density of the treated sample compared with the optical density of the control.
(§4) Bleomycin (BLEC), […] (CDDP), 5-fluoruracil (5-FU), vincristine (VCR), epidoxorubicin (Epi-Dx) and methotrexate (MTX) were tested for comparison purposes.
(§5) L-aC was tested at the following concentrations: 0.2-2-20 mg/ml.
(§6) In vitro short-term chemosensitivity assay (according to Hill and coll.)
(§7) (Cell Vitality Percentage After Exposure to the Antitumoral)—Raw Data
(Cells from Nasopharynx Carcinoma Explant)

Assay [2] relates to Cells from Larynx Carcinoma Explant. The assay can be described thus: In vitro short-term chemosensitivity assay (MTT). The procedure:
as §1, §2, §3, §4, §5, §6, §7
(Cells from Larynx Carcinoma Explant)

Assay [3] deals with cells from 4 primitive epidermoid carcinomas of the larynx and 1 primitive undifferentiated carcinoma of the nasopharynx. As to the kind of experiment: In vitro short-term chemosensitivity assay (MTT), all five explants. The conditions noted are these: five explants. On the procedure: as §1, §2, §3, §4, §5
Where [4] appears, read: 0.1x maximum clinical serum concentration (L-aC tested at 0.2-2-20 mg/ml).
Setting [5] is: 1x maximum clinical serum concentration.
The mark [6] stands for this setting: 10x maximum clinical serum concentration.

For `N.N.O=C([O-])C1(C(=O)[O-])CCC1.[Pt+2]` [CBP, carboplatin], the “Cell Vitality Percentage After Exposure” value in assay [1] (setting [4]) amounted to 7.1%; in assay [1] (setting [5]), 7%; in assay [1] (setting [6]), 6.5%; in assay [2] (Table 2 explant, 0.1x) it was 78%; in assay [2] (Table 2 explant, 1x) it was 58%; in assay [2] (Table 2 explant, 10x) it was 34%. Also, the “Cell Vitality Percentage After Exposure” value in assay [2] (Table 3 explant, 0.1x) is recorded as 88%; in assay [2] (Table 3 explant, 1x), 50%; in assay [2] (Table 3 explant, 10x), 21%; in assay [2] (Table 5 explant, 0.1x), 72%; in assay [2] (Table 5 explant, 1x), 53%; in assay [2] (Table 5 explant, 10x), 45%.
On to `O=c1[nH]cc(F)c(=O)[nH]1` [5-FU, 5-fluoruracil], for which the “Cell Vitality Percentage After Exposure” value in assay [1] (setting [4]) came out at 43%; in assay [1] (setting [5]), 12%; in assay [1] (setting [6]), 5.7%; in assay [2] (Table 2 explant, 0.1x) it was 53%; in assay [2] (Table 2 explant, 1x), 38%; in assay [2] (Table 2 explant, 10x), 13%. In addition, the “Cell Vitality Percentage After Exposure” value worked out at 52% in assay [2] (Table 3 explant, 0.1x); 45% in assay [2] (Table 3 explant, 1x); 23% in assay [2] (Table 3 explant, 10x); 40% in assay [2] (Table 4 explant, 0.1x); 14% in assay [2] (Table 4 explant, 1x); 14% in assay [2] (Table 4 explant, 10x). The “Cell Vitality Percentage After Exposure” value is 55% in assay [2] (Table 5 explant, 0.1x); 13% in assay [2] (Table 5 explant, 1x); 8.2% in assay [2] (Table 5 explant, 10x). In assay [3], the “most active medicaments (cases out of 5)” value is given as 1/5.
Regarding Bleomycin [BLM], the “Cell Vitality Percentage After Exposure” value in assay [2] (Table 2 explant, 0.1x) is 55%; in assay [2] (Table 2 explant, 1x) it was 36%; in assay [2] (Table 2 explant, 10x) it was 17%; in assay [2] (Table 3 explant, 0.1x), 81%; in assay [2] (Table 3 explant, 1x) it was 68%; in assay [2] (Table 3 explant, 10x) it was 34%. The “Cell Vitality Percentage After Exposure” value in assay [2] (Table 4 explant, 0.1x) is recorded as 82%; in assay [2] (Table 4 explant, 1x) it was 79%; in assay [2] (Table 4 explant, 10x), 62%; in assay [2] (Table 5 explant, 0.1x), 60%; in assay [2] (Table 5 explant, 1x) it was 35%; in assay [2] (Table 5 explant, 10x), 31%.
Regarding `COc1cccc2c1C(=O)c1c(O)c3c(c(O)c1C2=O)C[C@@](O)(C(=O)CO)C[C@@H]3O[C@H]1C[C@H](N)[C@@H](O)[C@H](C)O1` [Epi-Dx, epidoxorubicin], the “Cell Vitality Percentage After Exposure” value in assay [1] (setting [4]) worked out at 14%; in assay [1] (setting [5]), 7.8%; in assay [1] (setting [6]), 4.8%; in assay [2] (Table 2 explant, 0.1x) it was 59%; in assay [2] (Table 2 explant, 1x) it was 21%; in assay [2] (Table 2 explant, 10x), 7%. In addition, the “Cell Vitality Percentage After Exposure” value was 57% in assay [2] (Table 3 explant, 0.1x); 32% in assay [2] (Table 3 explant, 1x); 16% in assay [2] (Table 3 explant, 10x); 16% in assay [2] (Table 4 explant, 0.1x); 8% in assay [2] (Table 4 explant, 1x); 8% in assay [2] (Table 4 explant, 10x). In addition, the “Cell Vitality Percentage After Exposure” value in assay [2] (Table 5 explant, 0.1x) turned out to be 60%; in assay [2] (Table 5 explant, 1x), 21%; in assay [2] (Table 5 explant, 10x), 18%. In assay [3], the “most active medicaments (cases out of 5)” value is given as 2/5.
For `CC[C@]1(O)C[C@H]2CN(CCc3c([nH]c4ccccc34)[C@@](C(=O)OC)(c3cc4c(cc3OC)N(C=O)[C@H]3[C@@](O)(C(=O)OC)[C@H](OC(C)=O)[C@]5(CC)C=CCN6CC[C@]43[C@@H]65)C2)C1` [VCR, vincristine], the “Cell Vitality Percentage After Exposure” value in assay [1] (setting [4]) came out at 7.8%; in assay [1] (setting [5]) it was 4.6%; in assay [1] (setting [6]), 3.8%; in assay [2] (Table 2 explant, 0.1x), 70%; in assay [2] (Table 2 explant, 1x), 45%; in assay [2] (Table 2 explant, 10x), 11%. Besides, the “Cell Vitality Percentage After Exposure” value in assay [2] (Table 3 explant, 0.1x) was 32%; in assay [2] (Table 3 explant, 1x), 19%; in assay [2] (Table 3 explant, 10x), 4.8%; in assay [2] (Table 4 explant, 0.1x), 1.9%; in assay [2] (Table 4 explant, 1x) it was 1.3%; in assay [2] (Table 4 explant, 10x), 1.3%. The “Cell Vitality Percentage After Exposure” value in assay [2] (Table 5 explant, 0.1x) stood at 23%; in assay [2] (Table 5 explant, 1x) it was 4.2%; in assay [2] (Table 5 explant, 10x), 2%. The “most active medicaments (cases out of 5)” value in assay [3] was 4/5.
As for `CN(Cc1cnc2nc(N)nc(N)c2n1)c1ccc(C(=O)N[C@@H](CCC(=O)O)C(=O)O)cc1` [MTX, methotrexate], the “Cell Vitality Percentage After Exposure” value in assay [1] (setting [4]) is 13.5%; in assay [1] (setting [5]) it was 5%; in assay [1] (setting [6]) it was 3.9%; in assay [2] (Table 4 explant, 0.1x), 18%; in assay [2] (Table 4 explant, 1x), 4%; in assay [2] (Table 4 explant, 10x), 3.1%. Besides, in assay [3], the “most active medicaments (cases out of 5)” value is recorded as 2/5.

(Values after patent publication US6673839B1, “Pharmaceutical compositions with antitumour activity” (Universita' Degli Studi di Catania, priority 1998, dated 2004).)
